Measured values published in US4547371A, “Substituted cephalosporin sulfones as anti-inflammatory and anti-degenerative agents” (Merck & Co., Inc., priority 1983, dated 1985).

Target: T1, Human Polymorphonuclear Leukocyte Elastase (Homo sapiens, UniProt P08246)
T1 construct: Crude extract of human polymorphonuclear leukocytes (PMN) containing elastase activity; endogenous in cells; host or cells: human polymorphonuclear leukocytes (crude extract)
T1 sequence (P08246 30-247 limits assumed): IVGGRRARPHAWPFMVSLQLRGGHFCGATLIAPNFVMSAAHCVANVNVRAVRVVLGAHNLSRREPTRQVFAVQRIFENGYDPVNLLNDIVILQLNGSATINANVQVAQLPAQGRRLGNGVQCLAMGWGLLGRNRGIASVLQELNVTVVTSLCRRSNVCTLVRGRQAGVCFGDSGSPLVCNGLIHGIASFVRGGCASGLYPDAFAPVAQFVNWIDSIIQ
Test: Inhibition of human polymorphonuclear leukocyte elastase via hydrolysis of N-t-Boc-alanyl-alanyl-prolyl-alanine-p-nitroanilide
Assay type: biochemical
Conditions: effective dosage for 50% inhibition of the enzyme activity 2 minutes after zero time; crude human PMN extract, Boc-AAPAN substrate, pH 7.5, 410 mμ; read-out: ED50 (the source's name) (converted)
Experimental: Protocol--Enzyme Assays for the Inhibition of Human Polymorphonuclear Leukocyte Elastase Via Hydrolysis of N-t-Boc-alanyl-alanyl-prolylalanine-p-nitroanilide
0.05M TES (N-tris[hydroxymethyl]methyl-2-amino-ethanesulfonic acid) Buffer, pH 7.5.
0.2 mM N-t-Boc-alanyl-alanyl-prolyl-alanine-p-nitroanilide (Boc-AAPAN).
To prepare substrate, the solid (m.w. 550) was first dissolved in 10.0 ml DMSO. Buffer at pH 7.5 was then added to a final volume of 100 ml.
Crude extract of human polymorphonuclear leukocytes (PMN) containing elastase activity.
Inhibitors (cephalosporin sulfone esters) to be tested dissolved in DMSO just before use.
To 1.0 ml of 0.2 mM Boc-AAPAN in a cuvette, 0.01-0.1 ml of DMSO with or without inhibitor was added. After mixing, a measurement was taken at 410 mμ to detect any spontaneous hydrolysis due to presence of test compound. 0.05 Milliliters of PMN extract was then added and the ΔOD /min at 410 mμ was measured and recorded. Beckman model 35 spectrophotometer was used.
Results were reported as ED50, i.e., effective dosage in micrograms per milliliter (μg/ml) for 50% inhibition of the enzyme activity 2 minutes after zero time.
The elastase activity in the crude PMN extract may vary from one preparation to another. A control of each new batch is run, and the volume added in the assay procedure is adjusted according to activity.

Row | Compound | IC50 [nM]
1 | O=C(OCc1ccccc1)C1=C(C(F)(F)F)CS(=O)(=O)[C@@H]2[C@@H](NC(=O)C(F)(F)F)C(=O)N12 (relative stereo) [CF3 CONH / CF3 / OCH2 .phi., Benzyl 3-trifluoromethyl-7α-trifluoromethylcarbonylamino-8-oxo-5-thia-1-azabicyclo[4.2.0]oct-2-ene-2-carboxylate-5,5-dioxide] | 61.7
2 | CC(=O)OCC1=C(C(=O)OCc2ccccc2)N2C(=O)[C@H](NC(=O)C(F)(F)F)[C@H]2S(=O)(=O)C1 [NHCOCF3 / CH2 OCOCH3 / OCH2 .phi., Benzyl 3-acetyloxymethyl-7α-trifluoromethylcarbonylamino-8-oxo-5-thia-1-azabicyclo[4.2.0]oct-2-ene-2-carboxylate-5,5-dioxide] | 81.6
3 | COC(=O)N[C@H]1C(=O)N2C(C(=O)OCc3ccccc3)=C(COC(C)=O)CS(=O)(=O)[C@H]12 [NHCOOCH3 / CH2 OCOCH3 / OCH2 .phi., benzyl 3-acetyloxymethyl-7α-methoxycarbonylamino-8-oxo-5-thia-1-azabicyclo[4.2.0]oct-2-ene-2-carboxylate-5,5-dioxide] | 663
4 | CC(C)(C)OC(=O)C1=C(C(F)(F)F)CS(=O)(=O)[C@@H]2[C@@H](NC(=O)C(F)(F)F)C(=O)N12 (relative stereo) [CF3 CONH / CF3 / OtBu, t-Butyl 3-trifluoromethyl-7α-trifluoromethylcarbonylamino-8-oxo-5-thia-1-azabicyclo[4.2.0]oct-2-ene-2-carboxylate-5,5-dioxide] | 1770
